{"source": "patent US7393864B2", "about": "“Use of ClC3 chloride channel blockers to modulate vascular tone” (University of Iowa Research Foundation, priority 1999, dated 2008)", "key": {"[1]": {"system": "swelling-induced Cl ion current in cultured human aortic and coronary vascular smooth muscle cells", "test": "Whole-cell voltage-clamp of swelling-induced chloride current", "assay_type": "cell-based", "settings": "for Effect on swelling-induced Cl current: hypotonic conditions, whole-cell patch clamp, β-estradiol 10^−7 M, H-7 10^−5 M", "procedure": "Electrophysiology. Chloride ion currents were measured from cultured human aortic and coronary vascular smooth muscle cells at room temperature (22-24° C. using standard whole-cell voltage-clamp techniques (Hamill et al., 1981; Lamb et al., 1994) and an Axopatch 200B patch-clamp amplifier driven by pClamp software (Axon Instruments). The hypotonic (250 mOsm/kg by freezing point depression) bath solution contained (mM): NaCl 125, MgCl2 2.5, CaCl2 2.5, HEPES 10, pH 7.2. Isotonic bath solution had the same ionic composition as the hypotonic solution except that the osmolality was adjusted to 300 mOsm/kg by adding mannitol. Pipette solution contained (mM): N′-methyl-D-glucamine chloride (NMDG—Cl) 135, EGTA 2, Mg-ATP 5, HEPES 10, pH 7.2 with osmolality adjusted to 300 mOsm/kg by adding mannitol. Thus, the chloride equilibrium potential remained 0 mV under both isotonic and hypotonic conditions. All components of the buffer solutions were obtained from Sigma. Pipette resistances were 3-5 MOhms."}, "[2]": {"system": "rat thoracic aorta rings (vascular smooth muscle), intact or denuded endothelium", "test": "KCl-induced contraction of isolated aortic rings, isometric tension", "settings": "10 μM tamoxifen, FIG. 3", "procedure": "Adult male Sprague-Dawley rats (250-300 g) were obtained from Harlan Sprague Dawley. The animals were killed by exposure to 100% CO2 for 5 minutes, followed by cervical dislocation. Thoracic aortas were removed, cleaned of adherent connective tissue, and cut into 6 mm rings. The endothelium was left intact, and the rings were mounted in individual 10 ml isolated organ chambers using standard methods for recording of isometric tension. Contractile responses were recorded with an eight-channel MacLab8E and stored on a Power Macintosh 7200 computer. Passive stretch was set at 2.5 g, and the rings were allowed to equilibrate in physiological salt solution (PSS) at 37° C. for 120 minutes before the start of experimentation. PSS was aerated with a mixture of […]; the composition was as follows (in mM): 130 NaCl, 4.7 KCl, 1.18 KH2PO4, 1.17 MgSO47H2O, 14.9 NaHCO3, 1.6 CaCl2H2O, 5.5 dextrose, and 0.03 CaNa2-EDTA 0.03 (pH 7.30).\nData were expressed as a percentage of the maximal response of each ring to the agonist.\n• 1. Intact and denuded aortic blood vessel segments were prepared and mounted as described in Example 1. • 2. […] Cl (Sigma Chemical, St. Louis, Mo.), was applied to the vessels at 2, 4, 8, 12, 16, 20, 28, 40, 60, 80, and 100 mM concentrations, and the contractile response measured as described above."}, "[3]": {"system": "isolated rings of rat aorta", "settings": "vasculature with intact endothelium; Lamb and Barna 1998; cited from earlier work"}, "[4]": {"system": "rat thoracic aorta rings (vascular smooth muscle), intact or denuded endothelium", "test": "Norepinephrine-induced contraction of isolated aortic rings, isometric tension", "settings": "10 μM tamoxifen, FIG. 2"}, "[5]": {"system": "ion channel responsible for swelling-induced chloride conductance (CLC3)", "settings": "Duan et al. 1997; Nilius et al. 1994; cited from earlier work"}, "[6]": {"system": "isolated aortic rings from male wild-type, heterozygote and Clcn3 knockout mice", "test": "Dose-response to norepinephrine in isolated mouse aortic rings", "settings": "L-NNA 10^−4 M, wild-type tissues, FIG. 17", "procedure": "Animals were sacrificed by exposure to 100% CO2 for five minutes followed by cervical dislocation. Thoracic aortae were removed, cleaned of adherent connective tissue and cut into 4 rings. […] Contractile responses were recorded using a MacLab 8E and stored on a Power MacIntosh 6400/200 computer. Passive stretch was set at 5.0 mN and the rings were allowed to equilibrate in Physiologic Salt Solution (PSS) at 37° C. for 60 minutes prior to the start of experimentation."}, "Clcn3^−/− mice": {"system": "Clcn3^−/− mice", "test": "Recovery from sedatives in adult Clcn3-/- mice"}, "[7]": {"system": "isolated rings of rat aorta", "test": "Contractile response to ED80 norepinephrine or KCl in isolated rings of rat aorta (earlier studies, Lamb and Barna 1998)", "settings": "for Vasodilator effect in the presence of NE or KCl: denuded blood vessel segments; for Effect on contractile response to ED80 concentrations of NE or KCl: rings with intact endothelium", "text": "The above experiments were reported in Lamb and Barna, Am. J. Physiol., 275 H151 (1998) and Lamb and Barna, Am. J. Physiol., 275, 161 (1998), and are incorporated herein by reference."}, "erectile function": {"system": "erectile function", "settings": "cited from earlier work"}, "[8]": {"system": "Clcn3 knockout, heterozygous and wild type mice", "test": "Pentylenetetrazole-induced seizure susceptibility", "assay_type": "in vivo, mouse", "settings": "PTZ 70 mg/kg i.p.", "procedure": "The proconvulsant, pentylenetetrazole (PTZ), was dissolved at 7 mg/ml in sterile 0.9% NaCl and administered to drug-naive mice at 70 mg/kg i.p. in a quiet daytime laboratory setting. Parameters measured during the 15-minute observation period included time to onset of generalized tonic-clonic or tonic seizures, and duration of the first generalized seizure. Lethality was assessed 60 minutes post-injection (Loscher and Nolting, 1991)."}}}
{"compound": "CC1CNCCN1S(=O)(=O)c1cccc2cnccc12", "note": "(stereo not drawn) [H-7]", "values": [{"measurement": "Effect on swelling-induced Cl current", "setting": "[1]", "value": "increased"}]}
{"compound": "CC/C(=C(\\c1ccccc1)c1ccc(OCCN(C)C)cc1)c1ccccc1", "note": "[tamoxifen, 1-p-β-dimethylaminoethoxyphenyl-trans-1,2-diphenylbut-1-ene]", "values": [{"measurement": "Swelling-induced chloride current", "setting": "[1]; hypotonic + H7 (10^−5 M) + tamoxifen, n=3, hypotonic 1204±313 pA", "value": "878±493", "unit": "pA"}, {"measurement": "Effect on swelling-induced Cl current", "setting": "[1]", "value": "inhibited"}, {"measurement": "Effect on KCl sensitivity/contractility of denuded vessel segments", "setting": "[2]", "value": "corrects the increase in vascular smooth muscle sensitivity to KCl"}, {"measurement": "Effect on norepinephrine-induced contraction of normal vasculature", "setting": "[3]", "value": "no effect"}, {"measurement": "Effect on NE sensitivity/contractility of endothelially compromised (denuded) vessel segments", "setting": "[4]", "value": "shifts the dose-response curve of NE back to the right"}, {"measurement": "Block of ion channel responsible for swelling-induced chloride conductance", "setting": "[5]", "value": "block"}]}
{"compound": "NC(=NCCC[C@H](N)C(=O)O)N[N+](=O)[O-]", "note": "[L-NNA]", "values": [{"measurement": "Responsiveness to norepinephrine when endothelial nitric oxide synthase is inhibited", "setting": "[6]", "value": "increase in responsiveness"}]}
{"compound": "Cc1ncc2n1-c1ccc(Cl)cc1C(c1ccccc1F)=NC2", "note": "[midazolam]", "values": [{"measurement": "Recovery time from sedation", "setting": "Clcn3^−/− mice", "value": "prolonged recovery time"}]}
{"compound": "CCCC(C)C1(CC)C(=O)NC(=O)NC1=O", "note": "(stereo not drawn) [pentobarbital]", "values": [{"measurement": "Recovery time from sedation", "setting": "Clcn3^−/− mice", "value": "prolonged recovery time"}, {"measurement": "Incidence of death", "setting": "Clcn3^−/− mice; even at reduced doses", "value": "increased incidence of death"}]}
{"compound": "O=C(O)c1cccnc1Nc1cccc(C(F)(F)F)c1", "note": "[niflumic acid]", "values": [{"measurement": "Vasodilator effect in the presence of NE or KCl", "setting": "[7]", "value": "persisted"}, {"measurement": "Effect on contractile response to ED80 concentrations of NE or KCl", "setting": "[7]", "value": "significantly inhibited"}]}
{"compound": "CN1CCc2cccc3c2[C@H]1Cc1ccc(O)c(O)c1-3", "note": "[apomorphine]", "values": [{"measurement": "Men returned to sexual potency", "setting": "erectile function; men whose dysfunction had psychological origins", "value": "about 70%"}, {"measurement": "Time to response following administration", "setting": "erectile function; sublingual", "value": "20 to 40", "unit": "min"}]}
{"compound": "C1CCc2nnnn2CC1", "note": "[PTZ, pentylenetetrazole]", "values": [{"measurement": "Mice with generalized seizures", "setting": "[8]; Clcn3^+/+ mice (7/8)", "value": 87.5, "unit": "%"}, {"measurement": "Onset of generalized seizures", "setting": "[8]; Clcn3^+/+ mice", "value": "280 ± 112", "unit": "s"}, {"measurement": "Mice with generalized seizures", "setting": "[8]; Clcn3^+/− mice (13/15), 4-5 weeks old", "value": 86.7, "unit": "%"}, {"measurement": "Onset of generalized seizures", "setting": "[8]; Clcn3^+/− mice", "value": "215 ± 56", "unit": "s"}, {"measurement": "Mice with seizure activity", "setting": "[8]; Clcn3^−/− mice (1/8)", "value": 12.5, "unit": "%"}, {"measurement": "Onset of seizure activity", "setting": "[8]; Clcn3^−/− mice", "value": 58, "unit": "s"}]}
{"compound": "O=S(=O)(O)c1cc(N=C=S)ccc1C=Cc1ccc(N=C=S)cc1S(=O)(=O)O", "note": "[DIDS, 4,4′-diisothiocyanato stilbene-2,2′disulphonic acid]", "values": [{"measurement": "Vasodilator effect in the presence of NE or KCl", "setting": "[7]", "value": "persisted"}, {"measurement": "Effect on contractile response to ED80 concentrations of NE or KCl", "setting": "[7]", "value": "significantly inhibited"}]}
{"compound": "C[C@]12CC[C@@H]3c4ccc(O)cc4CC[C@H]3[C@@H]1CC[C@@H]2O", "note": "[β-estradiol]", "values": [{"measurement": "Swelling-induced Cl current (ICl)", "setting": "[1]; hypotonic plus estradiol 10^−7 M, +120 mV, n=5, hypotonic only 1451±495 pA", "value": "3513±856", "unit": "pA"}]}
